This is an account of results in patent publication US8697730B2, “5-lipoxygenase activating protein (FLAP) inhibitor” (Panmira Pharmaceuticals, LLC, priority 2007, dated 2014).

SMILES strings stand for the structures.

One series concerns chronic asthma. The conditions noted are these: chronic asthma studies; cited from earlier work.
Series [1] concerns allergen-induced early and late phases of lung-volume decline. Particulars: clinical trials / allergen-challenge studies; cited from earlier work.
A short description of series [2]: Examination of liver weight change in mice. The conditions noted are these: oral 250 mg/kg daily for 4 days, compared with vehicle control.
Protocol: Twenty-four hours following the final administration mice were placed into an enclosed Plexiglas chamber and exposed to CO2 for a period of 1-2 minutes or until breathing ceased. They were then removed and blood was taken via a cardiac puncture and cervical dislocation was performed. Subjects were next placed in a supine position and a midline incision made. All organs were inspected and the livers removed by careful dissection. Liver weights were recorded as well as any gross abnormalities.
The target of another series is CYP2D6 (Homo sapiens, UniProt P10635). Particulars: microsomes.
CYP2D6, sequence (P10635 whole entry): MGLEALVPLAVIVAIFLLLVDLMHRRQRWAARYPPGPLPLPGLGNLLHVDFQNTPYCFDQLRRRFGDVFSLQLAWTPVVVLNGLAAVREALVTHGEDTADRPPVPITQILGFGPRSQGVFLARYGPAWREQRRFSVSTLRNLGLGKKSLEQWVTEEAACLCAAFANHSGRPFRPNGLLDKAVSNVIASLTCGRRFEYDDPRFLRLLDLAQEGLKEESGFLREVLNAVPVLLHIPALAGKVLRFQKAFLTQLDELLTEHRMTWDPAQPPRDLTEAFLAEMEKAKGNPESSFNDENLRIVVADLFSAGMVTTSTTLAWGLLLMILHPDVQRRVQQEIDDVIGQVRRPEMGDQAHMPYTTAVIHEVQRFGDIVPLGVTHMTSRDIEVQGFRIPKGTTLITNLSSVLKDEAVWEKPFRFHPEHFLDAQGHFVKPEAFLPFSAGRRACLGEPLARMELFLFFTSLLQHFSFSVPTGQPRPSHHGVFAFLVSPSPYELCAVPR
A further series concerns the target CYP2C19 (Homo sapiens, UniProt P33261). The conditions noted are these: microsomes.
The target in series [3] is CYP2C9 (Homo sapiens, UniProt P11712). Particulars: microsomes.
CYP2C9 (Homo sapiens, UniProt P11712), sequence (P11712 whole entry): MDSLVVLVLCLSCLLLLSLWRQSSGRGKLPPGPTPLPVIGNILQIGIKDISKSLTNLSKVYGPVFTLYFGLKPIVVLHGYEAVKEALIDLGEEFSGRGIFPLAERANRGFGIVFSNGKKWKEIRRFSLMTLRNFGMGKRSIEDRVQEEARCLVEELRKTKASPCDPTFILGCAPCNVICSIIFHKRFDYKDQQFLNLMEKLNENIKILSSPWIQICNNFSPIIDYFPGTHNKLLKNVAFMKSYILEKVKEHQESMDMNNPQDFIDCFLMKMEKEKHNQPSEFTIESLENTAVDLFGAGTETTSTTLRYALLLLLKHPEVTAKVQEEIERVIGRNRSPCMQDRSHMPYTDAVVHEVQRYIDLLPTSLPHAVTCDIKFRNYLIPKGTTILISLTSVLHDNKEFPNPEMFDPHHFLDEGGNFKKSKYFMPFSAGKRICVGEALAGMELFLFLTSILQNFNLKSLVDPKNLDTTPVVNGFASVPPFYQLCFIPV
Another series deals with urinary LTE4 production. Briefly: Phase 1 study, urinary LTE4. In kind it is in vivo, human. The conditions noted are these: profile that may be obtained from a single dose administration to a human, dose not stated. As for the experimental part: (§1) Pharmacodynamics: Whole blood ionophore-stimulated leukotriene LTB4 and urinary LTE4 production are assayed by ELISA and mass spectrometry, respectively.
(§2) Obtain pre-dose fasting blood samples for hematology determinations. Obtain pre-dose fasting blood samples for serum chemistry determinations. Obtain pre-dose blood samples (5 mL EDTA and 4 mL heparinized) for baseline PK and LTB4. Collect ‘spot’ urine prior to study drug administration for baseline (pre-dose) LTE4. Administer study drug. […] Collect blood samples (2 mL heparinized) for LTB4 at 0.5, 1, 2, 3, 4, 6, 8, and 12 hours. Collect urine for LTE4 for the following separate intervals: 0-3, 3-6, 6-9, and 9-12 hours. For twice daily dosing group (if conducted): administer study drug 12 hours±30 minutes after prior dose, preceded by ≧2 hours fast.
(§3) Obtain pre-dose fasting blood samples for hematology determinations. Obtain pre-dose fasting blood samples for serum chemistry determinations. […] Collect blood samples (2 mL heparinized) for LTB4 at 24 hours after the first study drug administration; 4 mL blood will be collected at this time point in the Single Dose Phase. Collect ‘spot’ urine sample for LTE4 at 24 and 36 hours after first study drug administration.
(§4) Obtain pre-dose blood samples (5 mL EDTA and 2 mL heparinized) for PK and LTB4. Collect pre-dose urine for LTE4. Administer study drug (last dose of drug). […] Collect blood samples (2 mL heparinized) for LTB4 at 0.5, 1, 2, 3, 4, 6, 8, and 12 hours. Collect urine for LTE4 for the following separate intervals: 0-3, 3-6, 6-9, and 9-12 hours after study drug administration.
(§5) Record vital signs 24 hours after Day 11 study drug administration. […] Collect blood sample (4 mL heparinized) for LTB4 at 24 hours after Day 11 study drug administration. Collect ‘spot’ urine sample for LTE4 at 24 hours after Day 11 study drug administration.
(§6) Whole blood ionophore-stimulated leukotriene LTB4 and urinary LTE4 production were assayed by ELISA and mass spectrometry, respectively.

Series [4] relates to whole blood ionophore-stimulated leukotriene LTB4. Briefly: Phase 1 study, whole blood ionophore-stimulated LTB4. In kind it is in vivo, human. The conditions noted are these: profile that may be obtained from a single dose administration to a human, dose not stated. As for the experimental part:
as §1, §2, §3, §4, §5, §6

Series [5] relates to CYP2C9. The conditions noted are these: tested at 10 μM; diclofenac substrate.
For the next series, the target named is CYP3A4 (Homo sapiens, UniProt P08684). The conditions noted are these: microsomes.
CYP3A4, sequence (P08684 whole entry): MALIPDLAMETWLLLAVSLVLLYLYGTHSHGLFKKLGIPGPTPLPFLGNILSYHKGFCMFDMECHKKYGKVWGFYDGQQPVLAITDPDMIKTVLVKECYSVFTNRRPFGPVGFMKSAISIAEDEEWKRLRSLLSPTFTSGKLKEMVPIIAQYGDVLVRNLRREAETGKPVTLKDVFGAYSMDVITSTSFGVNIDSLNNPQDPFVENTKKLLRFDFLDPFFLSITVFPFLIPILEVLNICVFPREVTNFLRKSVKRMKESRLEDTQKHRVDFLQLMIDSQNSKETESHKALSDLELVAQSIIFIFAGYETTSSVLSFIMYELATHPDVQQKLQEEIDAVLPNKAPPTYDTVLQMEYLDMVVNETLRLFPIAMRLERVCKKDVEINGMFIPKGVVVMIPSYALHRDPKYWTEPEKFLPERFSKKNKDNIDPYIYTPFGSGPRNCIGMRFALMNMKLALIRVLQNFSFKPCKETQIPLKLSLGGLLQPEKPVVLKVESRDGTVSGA
The target of a further series is T1, CYP1A2 (Homo sapiens, UniProt P05177).
T1 sequence (P05177 1-516): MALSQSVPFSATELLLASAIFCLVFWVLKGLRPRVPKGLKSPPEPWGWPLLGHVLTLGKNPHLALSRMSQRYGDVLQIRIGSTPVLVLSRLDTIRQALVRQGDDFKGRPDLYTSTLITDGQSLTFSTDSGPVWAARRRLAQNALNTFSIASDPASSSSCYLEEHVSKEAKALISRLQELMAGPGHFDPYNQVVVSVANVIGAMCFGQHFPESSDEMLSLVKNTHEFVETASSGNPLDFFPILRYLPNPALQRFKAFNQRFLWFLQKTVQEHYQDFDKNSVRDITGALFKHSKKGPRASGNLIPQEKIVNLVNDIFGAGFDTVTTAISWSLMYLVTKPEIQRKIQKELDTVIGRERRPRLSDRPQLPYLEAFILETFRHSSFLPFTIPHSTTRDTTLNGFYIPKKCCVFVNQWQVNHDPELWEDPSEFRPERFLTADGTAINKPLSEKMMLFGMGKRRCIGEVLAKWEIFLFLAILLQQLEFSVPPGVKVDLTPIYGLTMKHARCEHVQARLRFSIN

CYP2C19, sequence (P33261 whole entry): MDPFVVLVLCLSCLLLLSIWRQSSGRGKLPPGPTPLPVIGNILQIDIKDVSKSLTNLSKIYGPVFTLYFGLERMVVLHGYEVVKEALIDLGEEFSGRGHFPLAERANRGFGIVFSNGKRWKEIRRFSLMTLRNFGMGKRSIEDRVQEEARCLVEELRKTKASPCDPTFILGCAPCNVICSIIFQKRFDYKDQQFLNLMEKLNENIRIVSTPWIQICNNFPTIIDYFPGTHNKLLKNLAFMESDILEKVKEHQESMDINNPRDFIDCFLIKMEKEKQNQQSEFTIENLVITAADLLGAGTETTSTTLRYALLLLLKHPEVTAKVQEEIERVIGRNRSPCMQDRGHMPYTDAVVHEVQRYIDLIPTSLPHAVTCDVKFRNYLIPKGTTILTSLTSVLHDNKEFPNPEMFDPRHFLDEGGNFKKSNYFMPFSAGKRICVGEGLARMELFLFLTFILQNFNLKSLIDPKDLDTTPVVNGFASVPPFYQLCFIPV

As for `CC(c1cc2ccccc2s1)N(O)C(N)=O` (stereo not shown) [Zileuton], the values for the efficacy in words result (with chronic asthma; in [1]) were “exhibited clinical efficacy” and “not effective”, respectively. Further, the liver weight alteration in series [2] turned out to be 36.0%.

For `COc1ccc(-c2ccc(Cn3c(CC(C)(C)C(=O)O)c(SC(C)(C)C)c4cc(OCc5ccccn5)ccc43)cc2)cn1` [sodium 3-[5-(pyrid-2-ylmethoxy)-3-(2-methyl-2-propylthio)-1-] [sodium 3-[5-(pyridin-2-ylmethoxy)-3-(2-methyl-2-propylthio)-1-[4-(2-methoxypyridin-5-yl)benzyl]-indol-2-yl]-2,2-dimethyl-propionate], the inhibition in words result is “No apparent inhibition” on CYP2D6; “weakly inhibited” at CYP2C19; “No apparent inhibition” on CYP2C9 [3]; “No apparent inhibition” against CYP3A4; “No apparent inhibition” against CYP1A2. Besides, the “inhibition of urinary LTE4 levels at 24 hours” value in the series with urinary LTE4 production is reported as at least 80%. In series [4], the “inhibition of blood LTB4 levels at 8 hours (Ionophore Challenge)” value is given as at least 80%. Moreover, in [4], the “inhibition of blood LTB4 levels at 24 hours (Ionophore Challenge)” value was at least 30%. For the same molecule, in the series with CYP2C9 [5], the “CYP2C9 induction in words” value is on record as “No apparent induction”. Further, the IC50 against CYP3A4 (human, pH 7.4) is above 50 µM.

In general, IC50 refers to the concentration that inhibits the measured activity by half.
